Measurements: patent US8729095B2, “3-(biaryloxy)propionic acid derivatives for prevention and/or treatment of thromboembolic diseases” (Daiichi Sankyo Company, Limited, priority 2009, dated 2014)
pIC50: −log10 of the molar value.

Columns and labels:
[1] = test system: platelet aggregation induced by ADP in human platelet-rich plasma (PRP); assay: Human platelet aggregation inhibitory activity (ADP-induced, platelet-rich plasma); type: cell-based; settings: 8 min, ADP final concentration 20 μM, maximum aggregation rate, measured for 8 minutes
Protocol: A blood collecting syringe containing 1/10 volume of a 3.8% sodium citrate solution was used to collect blood from radial vein of a healthy person. The collected blood was centrifuged at 180×g at room temperature for 10 minutes to separate the supernatant (platelet-rich plasma; PRP). After PRP was separately collected, the remaining blood was centrifuged at 1,600×g for 10 minutes to separately collect platelet-poor plasma (PPP) of the upper layer. PRP was left at rest at 16° C. for 30 minutes, and subsequently used for measurement.
200 μL of the separately collected PRP was dispensed into a cuvette for the aggregation test, and 1 μL of dimethylsulfoxide (control) or a test compound solution diluted with dimethylsulfoxide was added, followed by incubation at 37° C. for 2 minutes. Subsequently, 2 μL of 2 mM ADP was added (final concentration 20 μM) to induce platelet aggregation.
Platelet aggregation was measured for 8 minutes using an aggregometer (MCM HEMA TRACER 313M; MC MEDICAL, INC.). With the light transmittance rate of PPP being set as an aggregation value of 100%, the maximum aggregation rate was determined for each concentration of the test compounds to calculate IC50 values.

[2] = test system: platelet aggregation induced by ADP in rat platelet-rich plasma (PRP); assay: Platelet aggregation inhibitory activity during oral administration in a rat (ex vivo, ADP-induced); settings: male Wistar rats, 1 mg/10 ml/kg orally, blood collected 4 hours after administration, ADP final concentration 3 μM, vs. control PRP (solvent only), read-out: Inhibition Rates (%)
Protocol: 1 mg/10 ml/kg of the test compound was orally administered by gavage to male rats (Slc: Wistar, age 8 to 9 weeks) that had been fasted overnight. 4 hours after administration, a syringe containing 1/10 volume of a 3.13% sodium citrate solution was used to collect blood from the abdominal aorta of a rat under anesthesia. From the collected blood, platelet-rich plasma (PRP) and platelet-poor plasma (PPP) were prepared according to the method described in the method for measuring human platelet aggregation inhibitory activity. PRP was left at rest at 16° C. for 30 minutes, and subsequently used for measurement.
200 μL of the separately collected PRP was dispensed into a cuvette for the aggregation test, followed by incubation at 37° C. for 2 minutes, and subsequently 2 μL of 0.3 mM ADP was added (final concentration 3 μM) to induce platelet aggregation.
Platelet aggregation was measured for 8 minutes using an aggregometer (MCM HEMA TRACER 313M; MC MEDICAL, INC.). With the light transmittance rate of PPP being set as an aggregation value of 100%, the maximum aggregation rate of PRP was determined, and compared with the maximum aggregation rate of control PRP (rat administered only with a solvent) to calculate inhibition rates.

Row | SMILES | pIC50 [1] | inhibition at 1 mg/kg [2]
1 | C[C@H](CC(=O)O)Oc1cc(F)ccc1-c1ccc(C(=O)N2CCC(N3C(=O)C(C)(C)Oc4ncc(Cl)cc43)CC2)c(F)c1 [Example 35, (3R)-3-[(4′-{[4-(7-Chloro-3,3-dimethyl-2-oxo-2,3-dihydro-1H-pyrido[2,3-b][1,4]oxazin-1-yl)piperidin-1-yl]carbonyl}-3′,4-difluorobiphenyl-2-yl)oxy]butanoic acid] | 5.44 | 96%
2 | Cc1cc(-c2ccccc2O[C@H](C)CC(=O)O)ccc1C(=O)N1CCC(N2C(=O)C(C)(C)Cc3ncc(Cl)cc32)CC1 [Example 36, (3R)-3-[(4′-{[4-(7-Chloro-3,3-dimethyl-2-oxo-3,4-dihydro-1,5-naphthyridin-1(2H)-yl)piperidin-1-yl]carbonyl}-3′-methylbiphenyl-2-yl)oxy]butanoic acid] | 5.28 | 47%
3 | C[C@H](CC(=O)O)Oc1ccccc1-c1cnc(C(=O)N2CCC(N3C(=O)C(C)(C)Cc4ncc(Cl)cc43)CC2)c(F)c1 [Example 38, (3R)-3-[2-(6-{[4-(7-Chloro-3,3-dimethyl-2-oxo-3,4-dihydro-1,5-naphthyridin-1(2H)-yl)piperidin-1-yl]carbonyl}-5-fluoropyridin-3-yl)phenoxy]butanoic acid] | 5.70 | 52%
4 | CC[C@H](CC(=O)O)Oc1ccccc1-c1cnc(C(=O)N2CCC(N3C(=O)C(C)(C)Oc4ncc(Cl)cc43)CC2)c(F)c1 [Example 41, (3R)-3-[2-(6-{[4-(7-Chloro-3,3-dimethyl-2-oxo-2,3-dihydro-1H-pyrido[2,3-b][1,4]oxazin-1-yl)piperidin-1-yl]carbonyl}-5-fluoropyridin-3-yl)phenoxy]pentanoic acid] | 5.24 | 56%
5 | C[C@H](CC(=O)O)Oc1ccc(F)cc1-c1cnc(C(=O)N2CCC(N3C(=O)C(C)(C)Oc4ncc(Cl)cc43)CC2)c(F)c1 [Example 42, (3R)-3-[2-(6-{[4-(7-Chloro-3,3-dimethyl-2-oxo-2,3-dihydro-1H-pyrido[2,3-b][1,4]oxazin-1-yl)piperidin-1-yl]carbonyl}-5-fluoropyridin-3-yl)-4-fluorophenoxy]butanoic acid] | 5.85 | 54%
6 | C[C@H](CC(=O)O)Oc1ccc(F)cc1-c1cnc(C(=O)N2CCC(N3C(=O)C(C)(C)Cc4ncc(Cl)cc43)CC2)c(F)c1 [Example 44, (3R)-3-[2-(6-{[4-(7-Chloro-3,3-dimethyl-2-oxo-3,4-dihydro-1,5-naphthyridin-1(2H)-yl)piperidin-1-yl]carbonyl}-5-fluoropyridin-3-yl)-4-fluorophenoxy]butanoic acid] | 5.47 | 55%
7 | Cc1cc(-c2cc(F)ccc2O[C@H](C)CC(=O)O)ccc1C(=O)N1CCC(N2C(=O)C(C)(C)Cc3ncc(Cl)cc32)CC1 [Example 45, (3R)-3-[(4′-{[4-(7-Chloro-3,3-dimethyl-2-oxo-3,4-dihydro-1,5-naphthyridin-1(2H)-yl)piperidin-1-yl]carbonyl}-5-fluoro-3′-methylbiphenyl-2-yl)oxy]butanoic acid] | 4.96 | 51%
8 | C[C@@H](COc1ccccc1-c1cnc(C(=O)N2CCC(N3C(=O)C(C)(C)Cc4ncc(Cl)cc43)CC2)c(F)c1)C(=O)O [Example 46, (2S)-3-[2-(6-{[4-(7-Chloro-3,3-dimethyl-2-oxo-3,4-dihydro-1,5-naphthyridin-1(2H)-yl)piperidin-1-yl]carbonyl}-5-fluoropyridin-3-yl)phenoxy]-2-methylpropanoic acid] | 5.74 | 31%
9 | C[C@H](CC(=O)O)Oc1ccccc1-c1ccc(C(=O)N2CCC(N3C(=O)C(C)(C)Oc4ncc(Cl)cc43)CC2)c(N)c1 [Example 50, (3R)-3-[(3′-Amino-4′-{[4-(7-chloro-3,3-dimethyl-2-oxo-2,3-dihydro-1H-pyrido[2,3-b][1,4]oxazin-1-yl)piperidin-1-yl]carbonyl}biphenyl-2-yl)oxy]butanoic acid] | 6.06 | 53%
10 | C[C@H](CC(=O)O)Oc1ccccc1-c1cc(F)c(C(=O)N2CCC(N3C(=O)C(C)(C)Oc4ncc(Cl)cc43)CC2)c(F)c1 [Example 51, (3R)-3-[(4′-{[4-(7-Chloro-3,3-dimethyl-2-oxo-2,3-dihydro-1H-pyrido[2,3-b][1,4]oxazin-1-yl)piperidin-1-yl]carbonyl}-3′,5′-difluorobiphenyl-2-yl)oxy]butanoic acid] | 5.11 | 75%
11 | C[C@H](CC(=O)O)Oc1ccccc1-c1ccc(C(=O)N2CCC(N3C(=O)C(C)(C)Oc4ncc(C#N)cc43)CC2)c(F)c1 [Example 52, (3R)-3-[(4′-{[4-(7-Cyano-3,3-dimethyl-2-oxo-2,3-dihydro-1H-pyrido[2,3-b][1,4]oxazin-1-yl)piperidin-1-yl]carbonyl}-3′-fluorobiphenyl-2-yl)oxy]butanoic acid] | 5.64 | 71%
12 | CCc1cnc2c(c1)N(C1CCN(C(=O)c3ccc(-c4ccccc4O[C@H](C)CC(=O)O)cc3F)CC1)C(=O)C(C)(C)O2 [Example 53, (3R)-3-[(4′-{[4-(7-Ethyl-3,3-dimethyl-2-oxo-2,3-dihydro-1H-pyrido[2,3-b][1,4]oxazin-1-yl)piperidin-1-yl]carbonyl}-3′-fluorobiphenyl-2-yl)oxy]butanoic acid] | 5.19 | 44%
13 | Cc1ccc(-c2ccc(C(=O)N3CCC(N4C(=O)C(C)(C)Oc5ncc(Cl)cc54)CC3)c(F)c2)c(O[C@H](C)CC(=O)O)c1 [Example 55, (3R)-3-[(4′-{[4-(7-Chloro-3,3-dimethyl-2-oxo-2,3-dihydro-1H-pyrido[2,3-b][1,4]oxazin-1-yl)piperidin-1-yl]carbonyl}-3′-fluoro-4-methylbiphenyl-2-yl)oxy]butanoic acid] | 5.08 | 68%
